# Assay results taken from US9878986B2, “Compounds for selective histone deacetylase inhibitors, and pharmaceutical composition comprising the same” (CHONG KUN DANG PHARMACEUTICAL CORP., priority 2013, dated 2018).
# Experiments:
# [1] = biological target: HDAC1 (Homo sapiens, UniProt Q13547); test: Test of HDAC activities, HDAC1 Fluorimetric Drug Discovery Assay Kit; type: biochemical; set-up: purchased Enzolifesciences BML-AK511; conditions: samples at 100, 1000, 10000 nM; 37° C. 60 minutes; fluorescence Ex 390, Em 460; read-out: HDAC inhibitory activities, HDAC1
# Description: (§1) The HDAC inhibitory activities of test materials were measured using the HDAC1 Fluorimetric Drug Discovery Assay Kit (Enzolifesciences: BML-AK511) and HDAC6 human recombinant (Calbiochem: 382180). In the HDAC1 assay, the samples were treated with concentrations of 100, 1000, and 10000 nM, and in the HDAC6 assay, the samples were treated with concentrations of 0.1, 1, 10, 100, and 1000 nM. After the treatment of the samples, the samples were reacted at 37° C. for 60 minutes, treated with a developer, and then reacted at 37° C. for 30 minutes. Then, the fluorescence intensity (Ex 390, Em 460) was measured using the FlexStation 3 (Molecular device).
# [2] = biological target: T1, HDAC 6 (Homo sapiens, UniProt Q9UBN7); test: Test of HDAC activities, HDAC6 (fluorimetric); type: biochemical; set-up: purchased Calbiochem 382180; conditions: samples at 0.1, 1, 10, 100, 1000 nM; 37° C. 60 minutes; fluorescence Ex 390, Em 460; read-out: HDAC inhibitory activities, HDAC6
# T1 sequence (Q9UBN7 1-1215): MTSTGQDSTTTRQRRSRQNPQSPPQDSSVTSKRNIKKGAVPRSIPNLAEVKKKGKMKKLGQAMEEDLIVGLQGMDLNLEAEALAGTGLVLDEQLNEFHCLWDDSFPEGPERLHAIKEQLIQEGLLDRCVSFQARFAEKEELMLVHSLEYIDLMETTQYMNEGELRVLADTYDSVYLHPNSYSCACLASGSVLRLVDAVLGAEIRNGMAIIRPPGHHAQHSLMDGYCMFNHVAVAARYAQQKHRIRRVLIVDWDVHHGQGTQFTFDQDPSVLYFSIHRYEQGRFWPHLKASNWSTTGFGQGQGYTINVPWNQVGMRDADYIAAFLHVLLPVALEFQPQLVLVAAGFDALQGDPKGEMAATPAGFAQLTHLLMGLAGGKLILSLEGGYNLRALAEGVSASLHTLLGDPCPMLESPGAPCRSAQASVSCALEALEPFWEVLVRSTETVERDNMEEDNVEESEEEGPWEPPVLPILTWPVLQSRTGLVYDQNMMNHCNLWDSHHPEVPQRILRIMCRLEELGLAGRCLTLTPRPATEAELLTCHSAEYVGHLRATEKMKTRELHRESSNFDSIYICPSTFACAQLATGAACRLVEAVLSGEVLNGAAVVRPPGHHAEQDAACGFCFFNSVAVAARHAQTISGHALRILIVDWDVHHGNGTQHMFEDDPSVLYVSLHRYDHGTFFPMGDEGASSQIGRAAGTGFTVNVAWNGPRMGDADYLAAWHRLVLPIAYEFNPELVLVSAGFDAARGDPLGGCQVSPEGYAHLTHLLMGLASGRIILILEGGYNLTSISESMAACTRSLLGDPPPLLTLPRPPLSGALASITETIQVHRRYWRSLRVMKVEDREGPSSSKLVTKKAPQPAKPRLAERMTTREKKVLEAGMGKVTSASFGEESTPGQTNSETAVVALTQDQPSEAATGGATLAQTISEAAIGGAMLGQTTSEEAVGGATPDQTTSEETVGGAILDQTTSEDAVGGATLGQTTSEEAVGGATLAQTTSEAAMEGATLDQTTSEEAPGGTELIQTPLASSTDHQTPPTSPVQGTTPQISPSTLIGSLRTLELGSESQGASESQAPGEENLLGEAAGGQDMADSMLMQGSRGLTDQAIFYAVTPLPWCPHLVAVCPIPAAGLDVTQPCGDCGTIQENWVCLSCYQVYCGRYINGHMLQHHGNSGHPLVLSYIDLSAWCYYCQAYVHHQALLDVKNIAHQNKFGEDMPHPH
# Description: as §1
# HDAC1, sequence (Q13547 whole entry): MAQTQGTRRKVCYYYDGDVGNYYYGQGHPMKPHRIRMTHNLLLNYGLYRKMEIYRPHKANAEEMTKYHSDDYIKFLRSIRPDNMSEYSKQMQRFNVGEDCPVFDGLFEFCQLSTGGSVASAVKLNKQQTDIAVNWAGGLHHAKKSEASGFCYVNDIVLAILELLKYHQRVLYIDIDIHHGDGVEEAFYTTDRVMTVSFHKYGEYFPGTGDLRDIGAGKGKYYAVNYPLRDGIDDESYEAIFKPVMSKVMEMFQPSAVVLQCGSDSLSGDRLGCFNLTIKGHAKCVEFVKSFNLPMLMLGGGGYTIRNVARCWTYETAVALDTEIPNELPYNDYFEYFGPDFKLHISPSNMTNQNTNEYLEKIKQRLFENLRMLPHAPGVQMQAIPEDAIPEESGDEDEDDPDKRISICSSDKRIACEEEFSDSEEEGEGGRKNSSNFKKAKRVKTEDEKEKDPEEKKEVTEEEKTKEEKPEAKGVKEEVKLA
IC50 [1] [nM],IC50 [2] [nM],Compound
632,2,"Cc1ccc(N(Cc2ccc(C(=O)NO)cc2)C(=O)N2CCOCC2)c(F)c1 [Compound 439, N-(2-fluoro-4-methylphenyl)-N-(4-(hydroxycarbamoyl)benzyl)morpholine-4-carboxamide]"
988,2,"Cc1ccc(N(Cc2ccc(C(=O)NO)cc2)C(=O)N2CC(C)OC(C)C2)c(F)c1 (stereo not drawn) [Compound 440, N-(2-fluoro-4-methylphenyl)-N-(4-(hydroxycarbamoyl)benzyl)-2,6-dimethylmorpholine-4-carboxamide]"
447,2,"Cc1ccc(N(Cc2ccc(C(=O)NO)cc2)C(=O)N2CCN(C)CC2)c(F)c1 [Compound 441, N-(2-fluoro-4-methylphenyl)-N-(4-(hydroxycarbamoyl)benzyl)-4-methylpiperazine-1-carboxamide]"
6400,5,"CC(=O)N1CCCN(C(=O)N(Cc2ccc(C(=O)NO)cc2)c2ccccn2)CC1 [Compound 450, 4-acetyl-N-(4-(hydroxycarbamoyl)benzyl)-N-(pyridin-2-yl)-1,4-diazepane-1-carboxamide]"
4810,5,"O=C(NO)c1ccc(CN(C(=O)N2CCN(C(=O)C3CC3)CC2)c2ccccn2)cc1 [Compound 451, 4-(cyclopropanecarbonyl)-N-(4-(hydroxycarbamoyl)benzyl)-N-(pyridin-2-yl)piperazine-1-carboxamide]"
604,3,"CCN1CCN(C(=O)N(Cc2ccc(C(=O)NO)cc2)c2ccc(C)cc2F)CC1 [Compound 453, 4-ethyl-N-(2-fluoro-4-methylphenyl)-N-(4-(hydroxycarbamoyl)benzyl)piperazine-1-carboxamide]"
1320,5,"COc1ccccc1N1CCN(C(=O)N(Cc2ccc(C(=O)NO)cc2)c2ccc(C)cc2F)CC1 [Compound 454, N-(2-fluoro-4-methylphenyl)-N-(4-(hydroxycarbamoyl)benzyl)-4-(2-methoxyphenyl)piperazine-1-carboxamide]"
1980,6,"Cc1ccc(N(Cc2ccc(C(=O)NO)cc2)C(=O)N2CCN(c3ccc(F)cc3)CC2)c(F)c1 [Compound 455, N-(2-fluoro-4-methylphenyl)-4-(4-fluorophenyl)-N-(4-(hydroxycarbamoyl)benzyl)piperazine-1-carboxamide]"
1270,3,"O=C(NO)c1ccc(CN(C(=O)N2CCCCC2)c2ccc(F)c(Cl)c2)cc1 [Compound 456, N-(3-chloro-4-fluorophenyl)-N-(4-(hydroxycarbamoyl)benzyl)piperidine-1-carboxamide]"
3360,5,"CC1CCN(C(=O)N(Cc2ccc(C(=O)NO)cc2)c2ccc(F)c(Cl)c2)CC1 [Compound 457, N-(3-chloro-4-fluorophenyl)-N-(4-(hydroxycarbamoyl)benzyl)-4-methylpiperidine-1-carboxamide]"
474,1,"O=C(NO)c1ccc(CN(C(=O)N2CCOCC2)c2ccc(F)c(Cl)c2)cc1 [Compound 458, N-(3-chloro-4-fluorophenyl)-N-(4-(hydroxycarbamoyl)benzyl)morpholine-4-carboxamide]"
7350,14,"CC1CCN(C(=O)N(Cc2ccc(C(=O)NO)cc2)c2cccc(C(F)(F)F)c2)CC1 [Compound 459, N-(4-(hydroxycarbamoyl)benzyl)-4-methyl-N-(3-(trifluoromethyl)phenyl)piperidine-1-carboxamide]"
2370,3,"O=C(NO)c1ccc(CN(C(=O)N2CCCCC2)c2cccc(C(F)(F)F)c2)cc1 [Compound 460, N-(4-(hydroxycarbamoyl)benzyl)-N-(3-(trifluoromethyl)phenyl)piperidine-1-carboxamide]"
1930,14,"O=C(NO)c1ccc(CN(C(=O)N2CCCCC2)c2cccc(-c3ccc4c(c3)OCO4)c2)cc1 [Compound 462, N-(3-(benzo[d][1,3]dioxol-5-yl)phenyl)-N-(4-(hydroxycarbamoyl)benzyl)piperidine-1-carboxamide]"
284,3,"O=C(NO)c1ccc(CN(C(=O)N2CCC(O)CC2)c2cccc(-c3ccc4c(c3)OCO4)c2)cc1 [Compound 463, N-(3-(benzo[d][1,3]dioxol-5-yl)phenyl)-4-hydroxy-N-(4-(hydroxycarbamoyl)benzyl)piperidine-1-carboxamide]"
1170,10,"CC1CN(C(=O)N(Cc2ccc(C(=O)NO)cc2)c2cccc(-c3ccc4c(c3)OCO4)c2)CC(C)O1 (stereo not drawn) [Compound 464, N-(3-(benzo[d][1,3]dioxol-5-yl)phenyl)-N-(4-(hydroxycarbamoyl)benzyl)-2,6-dimethylmorpholine-4-carboxamide]"
2280,9,"O=C(NO)c1ccc(CN(C(=O)N2CCC(O)(c3ccccc3)CC2)c2cccc(-c3ccc4c(c3)OCO4)c2)cc1 [Compound 465, N-(3-(benzo[d][1,3]dioxol-5-yl)phenyl)-4-hydroxy-N-(4-(hydroxycarbamoyl)benzyl)-4-phenylpiperidine-1-carboxamide]"
408,3,"CN1CCN(C(=O)N(Cc2ccc(C(=O)NO)cc2)c2cccc(-c3ccc4c(c3)OCO4)c2)CC1 [Compound 466, N-(3-(benzo[d][1,3]dioxol-5-yl)phenyl)-N-(4-(hydroxycarbamoyl)benzyl)-4-methylpiperazine-1-carboxamide]"
240,1,"O=C(NO)c1ccc(CN(C(=O)N2CCN(CCO)CC2)c2cccc(-c3ccc4c(c3)OCO4)c2)cc1 [Compound 467, N-(3-(benzo[d][1,3]dioxol-5-yl)phenyl)-N-(4-(hydroxycarbamoyl)benzyl)-4-(2-hydroxyethyl)piperazine-1-carboxamide]"
12300,10,"O=C(NO)c1ccc(CN(C(=O)N2CCCC2)c2cccc(-c3ccc4c(c3)OCO4)c2)cc1 [Compound 468, N-(3-(benzo[d][1,3]dioxol-5-yl)phenyl)-N-(4-(hydroxycarbamoyl)benzyl)pyrrolidine-1-carboxamide]"
5340,12,"O=C(NO)c1ccc(CN(C(=O)N2CCC[C@H]2CO)c2cccc(-c3ccc4c(c3)OCO4)c2)cc1 [Compound 469, (S)—N-(3-(benzo[d][1,3]dioxol-5-yl)phenyl)-N-(4-(hydroxycarbamoyl)benzyl)-2-(hydroxymethyl)pyrrolidine-1-carboxamide]"
635,1,"O=C(NO)c1ccc(CN(C(=O)N2CCN(C(=O)C3CC3)CC2)c2cccc(-c3ccc4c(c3)OCO4)c2)cc1 [Compound 470, N-(3-(benzo[d][1,3]dioxol-5-yl)phenyl)-4-(cyclopropanecarbonyl)-N-(4-(hydroxycarbamoyl)benzyl)piperazine-1-carboxamide]"
1150,14,"O=C(NO)c1ccc(CN(C(=O)N2CCC2)c2cccc(-c3ccc4c(c3)OCO4)c2)cc1 [Compound 471, N-(3-(benzo[d][1,3]dioxol-5-yl)phenyl)-N-(4-(hydroxycarbamoyl)benzyl)azetidine-1-carboxamide]"
190,9,"CN1CCN(C(=O)N(Cc2ccc(C(=O)NO)cc2)c2ccc(F)c(Cl)c2)CC1 [Compound 478, N-(3-chloro-4-fluorophenyl)-N-(4-(hydroxycarbamoyl)benzyl)-4-methylpiperazine-1-carboxamide]"
